The results in this text go back to US7902252B2, “Inhibitors of D-amino acid oxidase” (Sepracor, Inc., priority 2007, dated 2011).

The subject of assay [1] is D-serine levels in the cerebellum. Nature of the assay: In vivo elevation of D-serine levels in the cerebellum.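 Also: Cutoffs are cerebellum D-serine in nmol/g wet tissue weight.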 Also noted: species or system Mice (C57BL/6). The note with it: mice, intraperitoneal. Here is the method:
[…] Animals are sacrificed at either 2 or 6 h post compound administration with an N=3 per time point. At sacrifice, trunk blood is collected into tubes containing potassium EDTA, which are then centrifuged to permit isolation of plasma. The cerebellum is dissected from each animal. Plasma and cerebellum samples are stored at −80° C. until samples are analyzed (LC/MS/MS).

Assay [2] addresses Human DAAO (Homo sapiens, UniProt P14920). Nature of the assay: D-Amino Acid Oxidase enzyme assay (D-serine, horseradish peroxidase/Amplex Red coupled fluorescence). The note with it: D-serine 5 mM, pH 7.4. The assay is classed as biochemical. The procedure, abridged:
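D-serine substrate at 5 mM (Km), 50 mM sodium phosphate pH 7.4; H2O2 output coupled via 4 U/mL horseradish peroxidase and 50 μM Amplex Red to resorufin fluorescence. Reaction started with enzyme; H2O2 control checked coupling interference; IC50 from inhibition curves.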

For orientation: IC50 means the concentration at which inhibition is half-maximal. A low value points to greater potency in that assay.

Human DAAO, sequence (P14920 whole entry): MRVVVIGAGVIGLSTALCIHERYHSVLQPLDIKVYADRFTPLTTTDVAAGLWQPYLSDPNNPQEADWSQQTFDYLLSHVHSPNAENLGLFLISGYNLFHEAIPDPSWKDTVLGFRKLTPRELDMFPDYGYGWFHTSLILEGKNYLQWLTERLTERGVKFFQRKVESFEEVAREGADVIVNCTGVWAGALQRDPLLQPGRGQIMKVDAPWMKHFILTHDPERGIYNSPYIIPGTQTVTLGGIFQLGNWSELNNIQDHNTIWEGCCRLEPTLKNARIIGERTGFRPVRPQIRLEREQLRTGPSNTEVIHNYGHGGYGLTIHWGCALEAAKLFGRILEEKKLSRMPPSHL

Take `O=C(O)c1cc2c([nH]1)CCC2Cc1ccc(F)cc1` (racemic) [Compound 39, 4-(4-fluorobenzyl)-1,4,5,6-tetrahydrocyclopenta[b]pyrrole-2-carboxylic acid]: in assay [1] (dose 30 mg/kg), the “Cerebellum D-serine at 2 hours” value is “(+) (2.5-4.9 = (+))” and the “Cerebellum D-serine at 6 hours” value is listed as “(+) (2.5-4.9 = (+))”. This molecule also registered an IC50 in assay [2] of at most 0.1 µM.

Regarding `O=C(O)c1cc2c([nH]1)CCC2Cc1ccc2ccccc2c1` (racemic) [Compound 78, 4-(naphthalen-2-ylmethyl)-1,4,5,6-tetrahydrocyclopenta[b]pyrrole-2-carboxylic acid], in assay [1] (dose 30 mg/kg), the “Cerebellum D-serine at 2 hours” value is “(+) (2.5-4.9 = (+))” and the “Cerebellum D-serine at 6 hours” value is recorded as “(+) (2.5-4.9 = (+))”. The IC50 in assay [2] is at most 0.1 µM.

With `O=C(O)c1cc2c([nH]1)C[C@@H]1C[C@H]21` (racemic) [Compound 138, ±(1aS,5aS)-1a,4,5,5a-tetrahydro-1H-4-aza-cyclopropa[α]pentalene-3-carboxylic acid], in assay [1] (dose 60 mg/kg), the “Cerebellum D-serine at 2 hours” value was “(++) (>5 = (++))” and the “Cerebellum D-serine at 6 hours” value is “(++) (>5 = (++))”. In assay [2], this molecule returned an IC50 of at most 0.1 µM.

For `CCCC1CCc2[nH]c(C(=O)O)cc21` (single isomer, unassigned) [Compound 8, 4-propyl-1,4,5,6-tetrahydrocyclopenta[b]pyrrole-2-carboxylic acid], in assay [1] (dose 30 mg/kg), the “Cerebellum D-serine at 2 hours” value was “(++) (>5 = (++))” and the “Cerebellum D-serine at 6 hours” value is reported as “(+) (2.5-4.9 = (+))”. Besides, the IC50 in assay [2] is at most 0.1 µM.

With `O=C(O)c1cc2c([nH]1)CCC2Cc1ccc(F)c(F)c1` (single isomer, unassigned) [Compound 44, 4-(3,4-difluorobenzyl)-1,4,5,6-tetrahydrocyclopenta[b]pyrrole-2-carboxylic acid], in assay [1] (dose 30 mg/kg), the “Cerebellum D-serine at 2 hours” value is recorded as “(+) (2.5-4.9 = (+))” and the “Cerebellum D-serine at 6 hours” value is listed as “(+) (2.5-4.9 = (+))”. This molecule also yielded an IC50 in assay [2] of at most 0.1 µM.

For `O=C(O)c1cc2c([nH]1)CCC2Cc1ccc(F)cc1F` (single isomer, unassigned) [Compound 47, 4-(2,4-difluorobenzyl)-1,4,5,6-tetrahydrocyclopenta[b]pyrrole-2-carboxylic acid], in assay [1] (dose 30 mg/kg), the “Cerebellum D-serine at 2 hours” value is “(++) (>5 = (++))” and the “Cerebellum D-serine at 6 hours” value is “(+) (2.5-4.9 = (+))”. In assay [2], this molecule gave an IC50 of at most 0.1 µM.

For the molecule `O=C(O)c1cc2c([nH]1)CCC2Cc1ccc(F)c(Cl)c1` (single isomer, unassigned) [Compound 50, 4-(3-chloro-4-fluorobenzyl)-1,4,5,6-tetrahydrocyclopenta[b]pyrrole-2-carboxylic acid], in assay [1] (dose 30 mg/kg), the “Cerebellum D-serine at 2 hours” value is “(++) (>5 = (++))” and the “Cerebellum D-serine at 6 hours” value is reported as “(+) (2.5-4.9 = (+))”.

On to `Cc1cc(F)ccc1CC1CCc2[nH]c(C(=O)O)cc21` (single isomer, unassigned) [Compound 53, 4-(4-fluoro-2-methylbenzyl)-1,4,5,6-tetrahydrocyclopenta[b]pyrrole-2-carboxylic acid], for which, in assay [1] (dose 10 mg/kg), the “Cerebellum D-serine at 2 hours” value is given as “(+) (2.5-4.9 = (+))” and the “Cerebellum D-serine at 6 hours” value is recorded as “(−) (<2.5 = (−))”. In addition, the IC50 in assay [2] was at most 0.1 µM.

For the molecule `O=C(O)c1cc2c([nH]1)CCC2Cc1ccc(Cl)c(Cl)c1` (single isomer, unassigned) [Compound 59, 4-(3,4-dichlorobenzyl)-1,4,5,6-tetrahydrocyclopenta[b]pyrrole-2-carboxylic acid], in assay [1] (dose 10 mg/kg), the “Cerebellum D-serine at 2 hours” value is recorded as “(+) (2.5-4.9 = (+))” and the “Cerebellum D-serine at 6 hours” value was “(+) (2.5-4.9 = (+))”. The same molecule displayed an IC50 in assay [2] of at most 0.1 µM.

Regarding `O=C(O)c1cc2c([nH]1)CCC2Cc1ccc(Br)cc1` (single isomer, unassigned) [Compound 62, 4-(4-bromobenzyl)-1,4,5,6-tetrahydrocyclopenta[b]pyrrole-2-carboxylic acid], in assay [1] (dose 30 mg/kg), the “Cerebellum D-serine at 2 hours” value is “(+) (2.5-4.9 = (+))” and the “Cerebellum D-serine at 6 hours” value was “(++) (>5 = (++))”. Moreover, the IC50 in assay [2] was at most 0.1 µM.

Regarding `O=C(O)c1cc2c([nH]1)CCC2Cc1cccc(Br)c1` (single isomer, unassigned) [Compound 64, 4-(3-bromobenzyl)-1,4,5,6-tetrahydrocyclopenta[b]pyrrole-2-carboxylic acid], the “Cerebellum D-serine at 2 hours” value in assay [1] (dose 60 mg/kg) was “(−) (<2.5 = (−))”. Also, the IC50 in assay [2] was at most 0.1 µM.

In the case of `O=C(O)c1cc2c([nH]1)CCC2Cc1cccc(Br)c1` (single isomer, unassigned) [Compound 65, 4-(3-bromobenzyl)-1,4,5,6-tetrahydrocyclopenta[b]pyrrole-2-carboxylic acid], in assay [1] (dose 30 mg/kg), the “Cerebellum D-serine at 2 hours” value is recorded as “(++) (>5 = (++))” and the “Cerebellum D-serine at 6 hours” value was “(+) (2.5-4.9 = (+))”. The IC50 in assay [2] is at most 100 µM.

As for `COc1cccc(CC2CCc3[nH]c(C(=O)O)cc32)c1` (single isomer, unassigned) [Compound 68, 4-(3-methoxybenzyl)-1,4,5,6-tetrahydrocyclopenta[b]pyrrole-2-carboxylic acid], in assay [1] (dose 30 mg/kg), the “Cerebellum D-serine at 2 hours” value was “(+) (2.5-4.9 = (+))” and the “Cerebellum D-serine at 6 hours” value was “(+) (2.5-4.9 = (+))”. This molecule also gave an IC50 in assay [2] of at most 0.1 µM.

With `O=C(O)c1cc2c([nH]1)CCC2Cc1ccc2ccccc2c1` (single isomer, unassigned) [Compound 80, 4-(naphthalen-2-ylmethyl)-1,4,5,6-tetrahydrocyclopenta[b]pyrrole-2-carboxylic acid], in assay [1] (dose 30 mg/kg), the “Cerebellum D-serine at 2 hours” value is “(+) (2.5-4.9 = (+))” and the “Cerebellum D-serine at 6 hours” value is “(+) (2.5-4.9 = (+))”. In assay [2], this molecule yielded an IC50 of at most 0.1 µM.

`O=C(O)c1cc2c([nH]1)CCC2Cc1cccc(-c2ccco2)c1` (single isomer, unassigned) [Compound 89, 4-(3-(furan-2-yl)benzyl)-1,4,5,6-tetrahydrocyclopenta[b]pyrrole-2-carboxylic acid]: the “Cerebellum D-serine at 2 hours” value in assay [1] (dose 30 mg/kg) is given as “(−) (<2.5 = (−))”. In assay [2], this molecule showed an IC50 of at most 0.1 µM.

As for `O=C(O)c1cc2c([nH]1)CCC2Cc1cccc(-c2ccc[nH]2)c1` (single isomer, unassigned) [Compound 93, 4-(3-(1H-pyrrol-2-yl)benzyl)-1,4,5,6-tetrahydrocyclopenta[b]pyrrole-2-carboxylic acid], in assay [1] (dose 30 mg/kg), the “Cerebellum D-serine at 2 hours” value is “(+) (2.5-4.9 = (+))” and the “Cerebellum D-serine at 6 hours” value is “(+) (2.5-4.9 = (+))”. The molecule further displayed an IC50 in assay [2] of at most 0.1 µM.

For the molecule `O=C(O)c1cc2c([nH]1)CCC2c1cccc(F)c1` (single isomer, unassigned) [Compound 96, 4-(3-fluorophenyl)-1,4,5,6-tetrahydrocyclopenta[b]pyrrole-2-carboxylic acid], in assay [1] (dose 30 mg/kg), the “Cerebellum D-serine at 2 hours” value is recorded as “(+) (2.5-4.9 = (+))” and the “Cerebellum D-serine at 6 hours” value was “(+) (2.5-4.9 = (+))”. The molecule further gave an IC50 in assay [2] of at most 0.1 µM.

Regarding `O=C(O)c1cc2c([nH]1)CCC2c1cc(F)cc(F)c1` (single isomer, unassigned) [Compound 100, 4-(3,5-difluorophenyl)-1,4,5,6-tetrahydrocyclopenta[b]pyrrole-2-carboxylic acid], in assay [1] (dose 30 mg/kg), the “Cerebellum D-serine at 2 hours” value was “(+) (2.5-4.9 = (+))” and the “Cerebellum D-serine at 6 hours” value was “(+) (2.5-4.9 = (+))”. In addition, in assay [2], the IC50 was at most 0.1 µM.

Take `O=C(O)c1cc2c([nH]1)C(Cc1cccc(Cl)c1)CC2` (single isomer, unassigned) [Compound 123, 6-(3-chlorobenzyl)-1,4,5,6-tetrahydrocyclopenta[b]pyrrole-2-carboxylic acid]: in assay [1] (dose 30 mg/kg), the “Cerebellum D-serine at 2 hours” value is on record as “(+) (2.5-4.9 = (+))” and the “Cerebellum D-serine at 6 hours” value was “(+) (2.5-4.9 = (+))”. Further, in assay [2], the IC50 is at most 0.1 µM.

As for `O=C(O)c1cc2c([nH]1)C(c1cccc(Br)c1)CC2` (stereo not drawn) [Compound 115, 6-(3-bromophenyl)-1,4,5,6-tetrahydrocyclopenta[b]pyrrole-2-carboxylic acid], the IC50 in assay [2] was at most 1 µM.

For the molecule `Cc1ccc(C2CCc3cc(C(=O)O)[nH]c32)cc1` (stereo not drawn) [Compound 116, 6-p-tolyl-1,4,5,6-tetrahydrocyclopenta[b]pyrrole-2-carboxylic acid], the half-inhibitory concentration (IC50) in assay [2] is at most 1 µM.

For the molecule `N#Cc1cccc(C2CCc3cc(C(=O)O)[nH]c32)c1` (stereo not drawn) [Compound 117, 6-(3-cyanophenyl)-1,4,5,6-tetrahydrocyclopenta[b]pyrrole-2-carboxylic acid], the IC50 in assay [2] was at most 1 µM.

With `O=C(O)c1cc2c([nH]1)C(Cc1cccc(O)c1)CC2` (stereo not drawn) [Compound 128, 6-(3-hydroxybenzyl)-1,4,5,6-tetrahydrocyclopenta[b]pyrrole-2-carboxylic acid], in assay [2], the IC50 is at most 0.1 µM.

For `O=C(O)c1cc2c([nH]1)C(CCc1cccc3ccccc13)CC2` (stereo not drawn) [Compound 132, 6-(2-(naphthalen-1-yl)ethyl)-1,4,5,6-tetrahydrocyclopenta[b]pyrrole-2-carboxylic acid], in assay [2], the IC50 was at most 1 µM.

The molecule `O=C(O)c1cc2c([nH]1)C(Cc1ccc(-c3ccccc3)cc1)CC2` (stereo not drawn) [Compound 133, 6-(biphenyl-4-ylmethyl)-1,4,5,6-tetrahydrocyclopenta[b]pyrrole-2-carboxylic acid] displayed an IC50 in assay [2] of at most 1 µM.

As for `O=C(O)c1[nH]c2c(c1Br)[C@H]1C[C@H]1C2` [Compound 145, (1aS,5aS)-1a,4,5,5a-tetrahydro-1H-2-bromo-4-aza-cyclopropa[α]pentalene-3-carboxylic acid], in assay [2], the IC50 was at most 100 µM.

`O=C(O)c1[nH]c2c(c1Br)C(CCc1ccccc1)CC2` (stereo not drawn) [Compound 147, 3-bromo-4-phenethyl-1,4,5,6-tetrahydrocyclopenta[b]pyrrole-2-carboxylic acid] gave an IC50 in assay [2] of at most 1 µM.

In turn, `COC1c2cc(C(=O)O)[nH]c2CC1(F)F` (stereo not drawn) [Compound 148, 5,5-difluoro-4-methoxy-1,4,5,6-tetrahydrocyclopenta[b]pyrrole-2-carboxylic acid] gave an IC50 in assay [2] of at most 100 µM.
